According to patent publication US20200115314A1, “METHOD OF PRODUCING PLASTICIZER AND REDUCING ENERGY CONSUMPTION” (SABIC Global Technologies B.V., priority 2017, published 2020):

How the values were obtained:
Format in all cases: physicochemical
[1] = Solubility tests for trimellitic anhydride in 2-ethyl hexanol
Experimental: Tri octyl trimellitate (TOTM) is one of the most commonly used non-phthalate based plasticizers. Tri octyl trimellitate is produced via esterification reaction between trimellitic anhydride (TMA) and 2-ethyl hexanol (2-EH). According to embodiments of the invention, trimellitic anhydride may be dissolved in 2-ethyl hexanol before it is transferred to an esterification reactor. Thus, the solubility of trimellitic anhydride in 2-ethyl hexanol was tested under various molar ratios of trimellitic anhydride to 2-ethyl hexanol. In this experiment, a hundred grams of trimellitic anhydride was initially added to 2-ethyl hexanol at a molar ratio of 1:1 to form a mixture. The temperature of the mixture was controlled in a range of 110° C. to 150 ° C. Additional 2-ethyl hexanol was gradually added to the mixture to change the molar ratio of trimellitic anhydride to 2-ethyl hexanol until complete dissolution of trimellitic anhydride in 2-ethyl hexanol was observed. The amount of added 2-ethyl hexanol was recorded to obtain a molar ratio needed for the complete dissolution of trimellitic anhydride.

[2] = Repeated solubility test for trimellitic anhydride in 2-ethyl hexanol
Experimental: The temperature range for complete dissolution of trimellitic anhydride was further repeated by varying the temperature in a range of 110° C. to 149° C. when the molar ratio of trimellitic anhydride to 2-ethyl hexanol was kept at 1:3.25. About 100 g of trimellitic anhydride was used. When a complete dissolution of trimellitic anhydride was observed, the amount of water formed during the dissolution and total time consumed for dissolution are recorded.

[3] = Solubility tests for trimellitic anhydride in 2-ethyl hexanol; remark: listed apart in the source

O=C(O)c1ccc2c(c1)C(=O)OC2=O [trimellitic anhydride]
Dissolution ([1]; TMA:2-EH molar ratio 1:1, 110-150 °C): No
Dissolution ([1]; TMA:2-EH molar ratio 1:2, 110-150 °C): No
Dissolution ([1]; TMA:2-EH molar ratio 1:2.5, 110-150 °C): No
Dissolution ([1]; TMA:2-EH molar ratio 1:3, 110-150 °C): No
Dissolution ([1]; TMA:2-EH molar ratio 1:3.25, 110-150 °C): Yes
Time for complete dissolution ([2]; about 149 °C, molar ratio about 1:3.25): 20 to 30 min
Dissolution ([2]; in 2-ethyl hexanol, TMA:2-EH molar ratio 1:3.25, 110-149 °C): Yes
Temperature at which the mixture becomes milky ([2]; on cooling, molar ratio 1:3.25): 60 °C
Temperature at which turbidity starts forming in the solution ([2]; on cooling, molar ratio 1:3.25): 65 °C
Temperature at which water formation starts ([3]; TMA:2-EH molar ratio 1:1, no catalyst): at 135 °C
Temperature at which water formation starts ([3]; TMA:2-EH molar ratio 1:2, no catalyst): at 135 °C
Temperature at which water formation starts ([3]; TMA:2-EH molar ratio 1:2.5, no catalyst): at 135 °C
Temperature at which water formation starts ([3]; TMA:2-EH molar ratio 1:3, no catalyst): at 135 °C
Temperature at which water formation started ([3]; at each molar ratio, without catalysts): 135 °C
